Test results taken from US8541426B2, “Pharmaceutical compositions and methods of treating dry eye disorders” (Pfizer Inc., priority 2007, dated 2013).

Key:
MRL/Ipr (Dry Eye) Mice = tested on: MRL/Ipr (Dry Eye) Mice
Procedure: To study the level of tear production over time, 10 MRL/Ipr mice and 5 of the age-matched C57 Black/6 control mice at 8 weeks of age were purchased from Jackson Laboratory (Bar Harbor, Me., USA). The mouse strain MRL/Ipr has a mutation which predisposes it to dry eye similar to Sjogren's Syndrome.
Tear production was measured with cotton thread (Quick Zone®) held with forceps and applied to the ocular surface at the lateral canthus for 15 to 30 seconds. Wetting of the thread was measured in millimeters.
C57 mice also received vehicle. Tear volume was measured on days 2, 3, and 6.
Tear measurement was done using phenol red impregnated thread (Quick Zone®) and baseline measurement was performed before each drug application. Drugs or vehicles were applied at 2 μl, two times a day.
Vehicle-treated normal C57black/6 and MRL/Ipr dry eye mice were used as normal control and dry eye control, respectively.
Control animals included normal C57Black/6 mice, and MRL/Ipr mice, treated with PBS vehicle and MRL/Ipr mice treated with Refresh Endura® (vehicle for Restasis) (5-10 mice/group).
As with Example 4 above, vehicle-treated normal C57black/6 and MRL/Ipr dry eye mice (5-10 mice/group) were used as normal control and dry eye control, respectively. […] Treatment for Formulation 1 was carried for two weeks, at 2 μl, twice a day.

dry-induced C57 mice = assay: Induced dry eye mouse model (scopolamine and fans), tear production; assay type: in vivo; settings: for tear production versus normal tear production values: after 4 days of treatment, induced dry eye mice
Procedure: An injection was prepared comprising 2.5 mg/ml scopolamine (sigma) in injectable saline (1-1.5 ml per animal). In normal C57 mice (200-250) ul of scopolamine was injected four times every 2.5 hrs in alternating hind quarters. The mice were placed in special cages (with holes in front and back) and placed in a hood. Fans were placed in front of each cage, and turned on for 16 hours over night for five days.
Measurements were taken daily.
As with Examples 4 and 5 above, animals were treated with drug or vehicle at 1 μl, once a day for 2 weeks.

[1] = CP-690550 0.01% vs Restasis (cyclosporine 0.05%), twice a day for 30 days, MRL/Ipr mice (FIG. 3)

SMILES: C[C@@H]1CCN(C(=O)CC#N)C[C@@H]1N(C)c1ncnc2[nH]ccc12 [CP0690550, 3-{(3R,4R)-4-Methyl-3-[methyl-(7H-pyrrolo[2,3-d]pyrimidin-4-yl)-amino]-piperidin-1-yl}-3-oxo-propionitrile]
- tear production comparable to normal: within x% of tear production by C57 normal mice (MRL/Ipr (Dry Eye) Mice; 0.01% (w/w) in Formulation 1 vehicle, twice a day, within 8 days, MRL/Ipr mice (FIG. 4)): 5 to 10%
- increase of tear production volume (MRL/Ipr (Dry Eye) Mice; 0.1% (w/w) twice a day, topical, MRL/Ipr mice, within the first 2 days of application (FIG. 2)): significantly increase
- response rate as compared to Restasis (MRL/Ipr (Dry Eye) Mice; [1]): much faster response rate
- volume of tear production over Restasis (MRL/Ipr (Dry Eye) Mice; [1]): significant improvement
- improvement in tear production (MRL/Ipr (Dry Eye) Mice; all comparisons (Formulations 1, 3 and 4 vehicle, FIGS. 4-6), 2 days after treatment, MRL/Ipr mice): significant improvement
- tear production volume comparable to normal: within x% of tear production by normal C57 mice (MRL/Ipr (Dry Eye) Mice; ultimately reached, MRL/Ipr mice, FIGS. 3 and 4): 5 to 10%
- tear production versus normal tear production values (dry-induced C57 mice; 0.003% in Formulation 5, once a day): approximated normal tear production values
- tear production versus normal tear production values (dry-induced C57 mice; 0.01% (w/w) in Formulation 3, once a day): approximated normal tear production values
- increase in tear production (dry-induced C57 mice; Formulations 3 and 5, 1 μl once a day, at 2 days of treatment, induced dry eye mice (FIGS. 7 and 8)): significant increase
